# Values joined by “and” are separate entries in the source; they are usually repeats but may differ in a detail not shown here. Equal values may be shown once. Non-standard residues stand in square brackets, D forms with d. Residues, ends and D or L forms follow the SMILES beside them.
# Columns and labels:
# Assay type in all cases: in vivo, human
# [1] = tested on: malnourished subjects with CKD; assay: Phase II CKD: anthropometry; details: ITT
# Experimental: (§1) Height (cm) was measured only at the screening visit. Anthrompometry was measured at every visit from baseline to follow-up. Anthropometric measurements included weight, skinfold thicknesses and arm circumference. Weight (kg) was measured using a high performance scale. Subjects were asked to stand on the scale with minimal clothing, no shoes, and with even weight on both feet. Skinfold thickness (mm) was measured by using Harpenden Skinfold Callipers at 4 sites: biceps, triceps, suprailiacal and subscapular. Arm circumference (cm) was measured using a tape measure that is flexible, inelastic and metric. The site measured was marked, and the tape was not to be too tight or too loose, and to lie flat on the skin, and be horizontal. Bioimpedance measurements were made to measure body composition at every visit from baseline to Day 28. The bioimpedance scale (RJL Systems) was used. Resistance, reactance and the phase angle were recorded.
# [2] = tested on: malnourished subjects with CKD; assay: Phase II CKD: bioimpedance; details: for Basal metabolic rate: median / Body cell mass: median / Extracellular cell mass: median / Extracellular water: median / Intracellular water: median / Total body water: median / Fat free mass (%): median / Fat free mass (kg): median / Fat mass (%): median / Fat mass (kg): median: ITT; for Fat free mass (%): median / Fat free mass (kg): median / Fat mass (%): median / Fat mass (kg): median: bioimpedance
# Experimental: as §1
# Bioelectrical impedance (BIA) was used to evaluate body water content (total body water %, extracellular water and intracellular water), fat free mass and fat mass using Maltron BioScan 916 and BIA 450 apparatus from Biodynamics Corp. The method is fast, precise and noninvasive.
# Bioimpedance measurements were done at every visit from baseline (day 0) on days 7, 14, 21 to 28. Weight and FFM (kg) were measured and FM (kg, %) and FFM (%) were derived. There was an increase from baseline in median FFM (3.3 kg) and decrease in median FM (1.8 kg) in all except one (11/12) patients in the GHRH(1-29)NH2 synthetic analog group on day 28 while there was a decrease in median FFM (0.8 kg) and increase in median FM (1.3 kg) in the placebo arm.
# healthy male volunteers = assay: Phase I/II study in healthy male volunteers: safety and tolerability
# Experimental: In order to evaluate the safety of the drug, all reported adverse events were considered during the study. The effects of the drug exerted specifically on the liver, renal, thyroid, cardiac and haematological functions were evaluated. The MED was defined as the dose of the GHRH(1-29)NH2 synthetic analog lower than the subsequent dose that produced the best secretion profile of GH.
# It was a crossover single-blinded Phase I/II trial of escalating doses of the GHRH(1-29)NH2 synthetic analog controlled versus placebo. Ten healthy middle-aged male volunteers, between 50 and 55 years old, were recruited. All 10 subjects received a single subcutaneous dose of the GHRH(1-29)NH2 synthetic analog (reconstituted in water for injection), per day for 5 days, in a dose range from 5 to 25 μg/kg of body weight (lower than the maximal dose used to treat GH deficiency in children, which was 30 μg/kg of body weight).
# After signing the informed consent form, all volunteers were clinically evaluated by the investigator and a chest x-ray and basal electrocardiogram and routine laboratory tests were performed. The analysis included: haemogram (hematocrit, haemoglobin, complete blood cell count, mean cell volume (MCV), mean corpuscular haemoglobin concentration (MCHC) and platelet count), liver function tests (aminotransferases, total proteins, albumin, alkaline phosphatase, billirubin, lactate dehydrogenase and prothrombin time), biochemistry (creatinine, urea, sodium, potassium, calcium, phosphorus, fasting glucose and postprandial glucose), urinalysis (pH, glucose, blood, proteins, and leukocytes), triiodothyronine, thyroxin and thyroid stimulating hormone (TSH), serology, basal level of IGF-1 and urine drug abuse screening.
# Once the volunteers were considered eligible, they were hospitalized for a period of 5 consecutive days. On Day 0 of admission successive samples of blood were taken to perform the basal secretion profile of GH during 24 hours. During 5-day hospitalization period, after the initial blood sampling to determine fasting glucose level, the appropriate dose of the GHRH(1-29)NH2 synthetic analog or placebo was administered and multiple samplings were performed to assess the profile of GH, postprandial glucose level and electrocardiogram after 60 minutes of the application of the GHRH(1-29)NH2 synthetic analog/placebo. Eight hours after drug administration, samples were obtained to determine IGF-1 level, thyroid hormones and routine analysis. After 30 days of admission, all the volunteers returned for new clinical evaluation to record any adverse events that could have occurred from the last day of hospitalization period and to take a blood sample for later determination of anti-GHRH(1-29)NH2 synthetic analog antibodies.
# [3] = all volunteers, throughout the study
smiles,measurement,setting,value
"CC[C@H](C)[C@H](NC(=O)[C@H](C)NC(=O)[C@H](CC(=O)O)NC(=O)[C@@H](C)NC(=O)[C@@H](N)Cc1ccc(O)cc1)C(=O)N[C@@H](Cc1ccccc1)C(=O)N[C@H](C(=O)N[C@@H](CC(N)=O)C(=O)N[C@@H](CO)C(=O)N[C@H](Cc1ccc(O)cc1)C(=O)N[C@@H](CCCNC(=N)N)C(=O)N[C@@H](CCCCN)C(=O)N[C@H](C(=O)N[C@@H](CC(C)C)C(=O)N[C@H](C)C(=O)N[C@@H](CCC(N)=O)C(=O)N[C@@H](CC(C)C)C(=O)N[C@@H](CO)C(=O)N[C@@H](C)C(=O)N[C@@H](CCCNC(=N)N)C(=O)N[C@@H](CCCCN)C(=O)N[C@@H](CCCCN)C(=O)N[C@@H](CC(C)C)C(=O)N[C@@H](CCC(N)=O)C(=O)N[C@@H](CC(=O)O)C(=O)N[C@H](C(=O)N[C@@H](CCSC)C(=O)N[C@@H](CO)C(=O)N[C@@H](CCCNC(=N)N)C(N)=O)[C@@H](C)CC)C(C)C)[C@@H](C)O [GHRH analog #5, [D-Ala^2, D-Tyr^10, D-Ala^15, Lys^22] hGHRH(1-29)-NH2] (H-Y[dA]DAIFTNS[dY]RKVL[dA]QLSARKKLQDIMSR-NH2)",Arm circumference: mean (SD),[1]; Baseline,26.35 (5.42) cm
same,Body weight: mean (SD),[1]; Baseline,62.84 (9.98) kg
same,Skinfold thickness biceps: median,[1]; Baseline,5.1 mm
same,Skinfold thickness subscapular: median,[1]; Baseline,8.0 mm
same,Skinfold thickness suprailiacal: median,[1]; Baseline,7.0 mm
same,Skinfold thickness triceps: median,[1]; Baseline,12.0 mm
same,Arm circumference: mean (SD),[1]; Day 28,27.33 (4.81) cm
same,Body weight: mean (SD),[1]; Day 28,63.21 (10.45) kg
same,Skinfold thickness biceps: median,[1]; Day 28,4.1 mm
same,Skinfold thickness subscapular: median,[1]; Day 28,8.6 mm
same,Skinfold thickness suprailiacal: median,[1]; Day 28,7.3 mm
same,Skinfold thickness triceps: median,[1]; Day 28,13.3 mm
same,Arm circumference: adjusted difference,[1]; vs placebo,0.33 cm
same,Body weight: adjusted difference,[1]; vs placebo,0.96 kg
same,Skinfold thickness triceps: ratio,[1]; vs placebo,1.066
same,Fat free mass (kg): mean (SD),"[1]; anthropometry, Baseline",46.64 (9.13) kg
same,Fat mass (%): median,"[1]; anthropometry, Baseline",25.4%
same,Fat mass (kg): median,"[1]; anthropometry, Baseline",15.8 kg
same,Fat free mass (kg): mean (SD),"[1]; anthropometry, Baseline, listed as GHRH(1-29)NH2 synthetic analog",46.64 kg
same,Fat free mass (kg): mean (SD),"[1]; anthropometry, Day 28",46.20 (9.16) kg
same,Fat mass (%): median,"[1]; anthropometry, Day 28",25.9%
same,Fat mass (kg): median,"[1]; anthropometry, Day 28",15.6 kg
same,Fat free mass (kg): mean (SD),"[1]; anthropometry, Day 28, listed as GHRH(1-29)NH2 synthetic analog",46.20 kg
same,Fat free mass (kg): adjusted difference,"[1]; anthropometry, vs placebo",0.41 kg
same,Median FFM,"[2]; BIA, day 7",50.4 kg
same,Median FM,"[2]; BIA, day 7",13.3 kg
same,Median FFM,"[2]; BIA, day 14",50.8 kg
same,Median FM,"[2]; BIA, day 14",13.4 kg
same,Median FFM,"[2]; BIA, day 21",50.1 kg
same,Median FM,"[2]; BIA, day 21",12.6 kg
same,Decrease from baseline in median FM,"[2]; BIA, day 28",1.8 kg
same,Increase from baseline in median FFM,"[2]; BIA, day 28",3.3 kg
same,Increase in median BMR from baseline,"[2]; BIA, day 28",49 kcal
same,Basal metabolic rate: median,[2]; Baseline,1441 kcal
same,Body cell mass: median,[2]; Baseline,23 kg and 23.0 kg
same,Extracellular cell mass: median,[2]; Baseline,23.5 kg
same,Extracellular water: median,[2]; Baseline,17.7 L
same,Intracellular water: median,[2]; Baseline,17.0 L
same,Total body water: median,[2]; Baseline,35.8 L
same,Basal metabolic rate: median,[2]; Day 28,1473 kcal
same,Body cell mass: median,[2]; Day 28,22.6 kg
same,Extracellular cell mass: median,[2]; Day 28,24.7 kg
same,Extracellular water: median,[2]; Day 28,19.1 L
same,Intracellular water: median,[2]; Day 28,15.8 L
same,Total body water: median,[2]; Day 28,38.1 L
same,Ratio of median ECW/ICW,[2]; baseline,1.04
same,Fat free mass (%): median,[2]; Baseline,75.3%
same,Fat free mass (kg): median,[2]; Baseline,48.8 kg
same,Fat mass (%): median,[2]; Baseline,24.7%
same,Fat mass (kg): median,[2]; Baseline,16.0 kg
same,Fat mass (kg): median,"[2]; Baseline, listed as GHRH(1-29)NH2 synthetic analog",16 kg
same,Fat free mass (%): median,[2]; Day 28,78.6%
same,Fat free mass (kg): median,[2]; Day 28,51.1 kg
same,Fat mass (%): median,[2]; Day 28,21.4%
same,Fat mass (kg): median,[2]; Day 28,12.2 kg
same,Median BCM,[2]; day 7,25.1 kg
same,Median ECM,[2]; day 7,24.4 kg
same,Median increase in BCM from baseline,[2]; day 7,1.3 kg
same,Median increase in ECM from baseline,[2]; day 7,0.8 kg
same,Median BCM,[2]; day 14,24.3 kg
same,Median ECM,[2]; day 14,25.4 kg
same,Median BCM,[2]; day 21,23.2 kg
same,Median ECM,[2]; day 21,25.9 kg
same,Increase in median ECW from baseline,[2]; day 28,1.9 L
same,Increase in median ICW from baseline,[2]; day 28,1.2 L
same,Increase in median total body water from baseline,[2]; day 28,3 L
same,Median increase in BCM from baseline,[2]; day 28,1.8 kg
same,Median increase in ECM from baseline,[2]; day 28,1.7 kg
same,Ratio of median ECW/ICW,[2]; day 28,1.2
same,Serious adverse events,"healthy male volunteers; 5 to 25 μg/kg sc, healthy male volunteers",no serious adverse events were reported
same,"Aminotransferase elevation, one case",healthy male volunteers; Day 1 to Day 5,less than 2.5 times the upper normal limit
same,"Neutrophils, neutropenia case","healthy male volunteers; Day 2, after 10 μg/kg dose","1,406 neutrophyles/mm3"
same,"White blood cells, leukopenia case","healthy male volunteers; Day 2, after 10 μg/kg dose","3,800 WBC/mm3"
same,"Eosinophils, eosinophilia in one volunteer","healthy male volunteers; Day 5, 5 μg/kg dose",808 eosinophyls/mm3
same,"White blood cells, leukocytosis in one volunteer","healthy male volunteers; Day 5, 5 μg/kg dose","12,400 WBC/mm3"
same,Mean decrease of haematocrit,healthy male volunteers; [3],10.1±1.9 points
same,Mean decrease of haemoglobin,healthy male volunteers; [3],2.8 ± 0.8 g/dL
same,"Thyroid anomalies, cardiac dysfunction","healthy male volunteers; human, in vivo",Neither thyroid anomalies nor cardiac dysfunction were reported
